ChEMBL document CHEMBL1201862, “PubChem BioAssay data set” (2004)
Activity calls are given as the source filed them.

Legend:
[1] = NIH3T3 cell viability loss – ATP luminescence, mouse fibroblasts, counter-screen, dose response (AID 2010); type: functional, cell-based;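 note: cells exposed to compound for about 90 hours before reading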
[2] = Trypanosoma cruzi growth suppression in host cells – NIH3T3 host cells, beta-gal luminescence, confirmation (AID 2044); type: functional, cell-based;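 note: intracellular parasites grown in NIH/3T3 mouse fibroblasts as host cells; luminescent beta-galactosidase reporter signal from transgenic T. cruzi replicating inside host cells; inhibitors lower the luminescence signal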
Estrogen receptor beta [3] = target: T1, Estrogen receptor beta (Homo sapiens, UniProt Q92731); experiment: blockers of SRC-3 recruitment to ERβ – biochemical, ELISA, streptavidin-HRP readout, orthogonal assay, confirmation (AID 1060)
T1 sequence (Q92731 whole entry): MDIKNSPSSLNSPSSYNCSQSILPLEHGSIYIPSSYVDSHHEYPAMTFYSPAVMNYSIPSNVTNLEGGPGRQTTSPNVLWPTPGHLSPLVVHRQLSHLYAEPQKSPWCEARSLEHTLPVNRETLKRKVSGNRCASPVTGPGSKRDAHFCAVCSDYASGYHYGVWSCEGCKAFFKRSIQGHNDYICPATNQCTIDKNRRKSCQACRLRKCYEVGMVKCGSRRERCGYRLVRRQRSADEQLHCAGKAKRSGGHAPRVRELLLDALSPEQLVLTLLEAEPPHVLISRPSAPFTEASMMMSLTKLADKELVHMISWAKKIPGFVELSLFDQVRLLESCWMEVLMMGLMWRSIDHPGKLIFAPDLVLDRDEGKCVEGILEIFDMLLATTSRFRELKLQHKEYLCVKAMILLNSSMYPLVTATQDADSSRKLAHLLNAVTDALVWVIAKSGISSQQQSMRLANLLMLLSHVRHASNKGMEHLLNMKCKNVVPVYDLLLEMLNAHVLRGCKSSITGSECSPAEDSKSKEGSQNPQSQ

Estrogen receptor beta [4] = target: T1, Estrogen receptor beta
[5] = target: T2, Apoptotic protease-activating factor 1 (Homo sapiens, UniProt O14727); type: functional
T2 sequence (O14727 whole entry): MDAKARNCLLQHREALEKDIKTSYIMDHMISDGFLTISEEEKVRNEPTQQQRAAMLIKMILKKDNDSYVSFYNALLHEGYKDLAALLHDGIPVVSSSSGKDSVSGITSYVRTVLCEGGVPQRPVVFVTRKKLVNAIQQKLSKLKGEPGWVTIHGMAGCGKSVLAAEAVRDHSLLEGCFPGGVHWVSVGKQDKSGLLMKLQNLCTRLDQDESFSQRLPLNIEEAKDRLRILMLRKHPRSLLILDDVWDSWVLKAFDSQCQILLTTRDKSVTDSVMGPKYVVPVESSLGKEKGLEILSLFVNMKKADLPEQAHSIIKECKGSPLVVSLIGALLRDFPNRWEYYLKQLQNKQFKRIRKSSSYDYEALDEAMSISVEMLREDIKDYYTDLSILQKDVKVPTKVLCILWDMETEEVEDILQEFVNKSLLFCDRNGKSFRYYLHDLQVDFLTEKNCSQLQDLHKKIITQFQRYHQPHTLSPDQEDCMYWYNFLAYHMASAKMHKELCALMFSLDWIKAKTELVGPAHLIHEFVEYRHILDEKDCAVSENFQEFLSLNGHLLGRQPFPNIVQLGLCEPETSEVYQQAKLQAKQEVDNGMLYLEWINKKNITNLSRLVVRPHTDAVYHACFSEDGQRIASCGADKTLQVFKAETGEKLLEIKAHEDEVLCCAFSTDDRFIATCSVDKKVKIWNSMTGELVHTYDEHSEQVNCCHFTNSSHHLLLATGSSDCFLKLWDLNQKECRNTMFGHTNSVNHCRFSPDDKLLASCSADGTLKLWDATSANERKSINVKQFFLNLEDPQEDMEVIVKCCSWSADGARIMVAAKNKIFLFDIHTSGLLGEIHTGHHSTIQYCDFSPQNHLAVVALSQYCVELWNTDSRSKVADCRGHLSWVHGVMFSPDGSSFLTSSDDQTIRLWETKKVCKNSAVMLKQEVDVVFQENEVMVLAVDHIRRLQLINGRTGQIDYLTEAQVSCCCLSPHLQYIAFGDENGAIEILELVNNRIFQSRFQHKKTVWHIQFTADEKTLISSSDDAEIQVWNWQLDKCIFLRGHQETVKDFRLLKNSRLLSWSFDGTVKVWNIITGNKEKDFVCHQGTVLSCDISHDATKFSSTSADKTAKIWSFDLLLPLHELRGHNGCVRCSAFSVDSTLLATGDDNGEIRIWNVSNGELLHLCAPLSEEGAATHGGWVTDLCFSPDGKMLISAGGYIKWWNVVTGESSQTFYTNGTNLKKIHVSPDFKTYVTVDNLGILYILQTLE

Genome polyprotein = Genome polyprotein (dengue virus type 2, UniProt P29990); experiment: flavivirus cap methylation enzyme inhibition – biochemical, confirmation dose response, primary screen (AID 588689); type: functional
Bcl-2-like protein 10 = target: T3, Bcl-2-like protein 10 (Homo sapiens, UniProt Q9HD36); experiment: Bcl-B/TR3 peptide binding disruption – biochemical, fluorescence polarization, FITC-TR3 peptide, selectivity assay for Bfl-1 inhibitor project, primary screen (AID 748);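 note: fluorescence polarization from a fluorescein-labelled TR3 peptide binding purified Bcl-B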
T3 sequence (Q9HD36 whole entry): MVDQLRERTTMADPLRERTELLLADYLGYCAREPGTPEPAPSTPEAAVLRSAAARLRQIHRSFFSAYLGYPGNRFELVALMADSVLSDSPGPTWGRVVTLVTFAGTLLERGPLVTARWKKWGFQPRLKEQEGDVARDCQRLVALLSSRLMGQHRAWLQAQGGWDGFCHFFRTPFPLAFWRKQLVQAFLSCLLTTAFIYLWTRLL

[6] = target: Serine/threonine-protein phosphatase PP1-alpha catalytic subunit (Homo sapiens, UniProt P62136); experiment: inhibition of protein phosphatase 1 activity – biochemical, fluorescence, dose response (AID 2394)
Serine/threonine-protein phosphatase PP1-alpha catalytic subunit, sequence (P62136 whole entry): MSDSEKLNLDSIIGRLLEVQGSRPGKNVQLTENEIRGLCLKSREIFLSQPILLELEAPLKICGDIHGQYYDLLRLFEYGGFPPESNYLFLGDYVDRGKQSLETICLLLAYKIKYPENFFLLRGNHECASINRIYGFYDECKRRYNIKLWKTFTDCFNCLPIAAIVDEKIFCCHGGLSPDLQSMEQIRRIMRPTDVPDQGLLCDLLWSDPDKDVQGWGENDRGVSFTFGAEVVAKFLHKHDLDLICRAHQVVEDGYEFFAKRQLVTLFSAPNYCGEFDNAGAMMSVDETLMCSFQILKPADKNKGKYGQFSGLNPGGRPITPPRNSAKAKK

[7] = target: T4, Serine/threonine-protein phosphatase (Homo sapiens, UniProt Q9BPW0); experiment: inhibition of protein phosphatase 5 activity – biochemical, fluorescence, dose response (AID 2395)
T4 sequence (Q9BPW0 whole entry): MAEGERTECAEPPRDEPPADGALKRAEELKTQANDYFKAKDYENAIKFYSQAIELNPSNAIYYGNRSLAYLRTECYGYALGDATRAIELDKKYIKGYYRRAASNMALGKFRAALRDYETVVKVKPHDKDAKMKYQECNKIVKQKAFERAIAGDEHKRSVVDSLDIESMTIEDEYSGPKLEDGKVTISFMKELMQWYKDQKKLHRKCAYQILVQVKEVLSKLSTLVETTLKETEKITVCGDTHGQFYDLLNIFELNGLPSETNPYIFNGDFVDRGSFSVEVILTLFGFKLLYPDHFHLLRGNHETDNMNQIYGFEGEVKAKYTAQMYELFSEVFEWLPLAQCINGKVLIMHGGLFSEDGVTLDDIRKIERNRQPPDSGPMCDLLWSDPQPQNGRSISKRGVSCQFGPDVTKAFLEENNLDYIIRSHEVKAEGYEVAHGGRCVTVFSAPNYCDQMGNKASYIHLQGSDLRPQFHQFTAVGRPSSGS

X-box-binding protein 1 = X-box-binding protein 1 (Homo sapiens, UniProt P17861); type: functional, Cricetulus griseus;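 note: confirmatory dose-response counter-screen serving a CHOP assay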
X-box-binding protein 1, sequence (P17861 whole entry): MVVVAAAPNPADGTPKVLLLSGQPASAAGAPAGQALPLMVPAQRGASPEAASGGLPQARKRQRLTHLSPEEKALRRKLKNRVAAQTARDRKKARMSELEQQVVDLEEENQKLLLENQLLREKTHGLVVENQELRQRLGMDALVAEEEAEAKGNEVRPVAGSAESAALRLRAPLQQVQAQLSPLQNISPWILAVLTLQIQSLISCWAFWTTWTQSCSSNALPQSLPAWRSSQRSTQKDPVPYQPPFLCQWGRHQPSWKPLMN

Fatty acid synthase [8] = target: T5, Fatty acid synthase (Homo sapiens, UniProt P49327); experiment: inhibition of human FAS-TE enzyme activity – biochemical, kinetic fluorescence intensity, dose response (AID 624326); type: functional;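 note: rate of fluorescence rise from hydrolysis of a fluorogenic O-methyl fluorescein ester substrate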
T5 sequence (P49327 whole entry): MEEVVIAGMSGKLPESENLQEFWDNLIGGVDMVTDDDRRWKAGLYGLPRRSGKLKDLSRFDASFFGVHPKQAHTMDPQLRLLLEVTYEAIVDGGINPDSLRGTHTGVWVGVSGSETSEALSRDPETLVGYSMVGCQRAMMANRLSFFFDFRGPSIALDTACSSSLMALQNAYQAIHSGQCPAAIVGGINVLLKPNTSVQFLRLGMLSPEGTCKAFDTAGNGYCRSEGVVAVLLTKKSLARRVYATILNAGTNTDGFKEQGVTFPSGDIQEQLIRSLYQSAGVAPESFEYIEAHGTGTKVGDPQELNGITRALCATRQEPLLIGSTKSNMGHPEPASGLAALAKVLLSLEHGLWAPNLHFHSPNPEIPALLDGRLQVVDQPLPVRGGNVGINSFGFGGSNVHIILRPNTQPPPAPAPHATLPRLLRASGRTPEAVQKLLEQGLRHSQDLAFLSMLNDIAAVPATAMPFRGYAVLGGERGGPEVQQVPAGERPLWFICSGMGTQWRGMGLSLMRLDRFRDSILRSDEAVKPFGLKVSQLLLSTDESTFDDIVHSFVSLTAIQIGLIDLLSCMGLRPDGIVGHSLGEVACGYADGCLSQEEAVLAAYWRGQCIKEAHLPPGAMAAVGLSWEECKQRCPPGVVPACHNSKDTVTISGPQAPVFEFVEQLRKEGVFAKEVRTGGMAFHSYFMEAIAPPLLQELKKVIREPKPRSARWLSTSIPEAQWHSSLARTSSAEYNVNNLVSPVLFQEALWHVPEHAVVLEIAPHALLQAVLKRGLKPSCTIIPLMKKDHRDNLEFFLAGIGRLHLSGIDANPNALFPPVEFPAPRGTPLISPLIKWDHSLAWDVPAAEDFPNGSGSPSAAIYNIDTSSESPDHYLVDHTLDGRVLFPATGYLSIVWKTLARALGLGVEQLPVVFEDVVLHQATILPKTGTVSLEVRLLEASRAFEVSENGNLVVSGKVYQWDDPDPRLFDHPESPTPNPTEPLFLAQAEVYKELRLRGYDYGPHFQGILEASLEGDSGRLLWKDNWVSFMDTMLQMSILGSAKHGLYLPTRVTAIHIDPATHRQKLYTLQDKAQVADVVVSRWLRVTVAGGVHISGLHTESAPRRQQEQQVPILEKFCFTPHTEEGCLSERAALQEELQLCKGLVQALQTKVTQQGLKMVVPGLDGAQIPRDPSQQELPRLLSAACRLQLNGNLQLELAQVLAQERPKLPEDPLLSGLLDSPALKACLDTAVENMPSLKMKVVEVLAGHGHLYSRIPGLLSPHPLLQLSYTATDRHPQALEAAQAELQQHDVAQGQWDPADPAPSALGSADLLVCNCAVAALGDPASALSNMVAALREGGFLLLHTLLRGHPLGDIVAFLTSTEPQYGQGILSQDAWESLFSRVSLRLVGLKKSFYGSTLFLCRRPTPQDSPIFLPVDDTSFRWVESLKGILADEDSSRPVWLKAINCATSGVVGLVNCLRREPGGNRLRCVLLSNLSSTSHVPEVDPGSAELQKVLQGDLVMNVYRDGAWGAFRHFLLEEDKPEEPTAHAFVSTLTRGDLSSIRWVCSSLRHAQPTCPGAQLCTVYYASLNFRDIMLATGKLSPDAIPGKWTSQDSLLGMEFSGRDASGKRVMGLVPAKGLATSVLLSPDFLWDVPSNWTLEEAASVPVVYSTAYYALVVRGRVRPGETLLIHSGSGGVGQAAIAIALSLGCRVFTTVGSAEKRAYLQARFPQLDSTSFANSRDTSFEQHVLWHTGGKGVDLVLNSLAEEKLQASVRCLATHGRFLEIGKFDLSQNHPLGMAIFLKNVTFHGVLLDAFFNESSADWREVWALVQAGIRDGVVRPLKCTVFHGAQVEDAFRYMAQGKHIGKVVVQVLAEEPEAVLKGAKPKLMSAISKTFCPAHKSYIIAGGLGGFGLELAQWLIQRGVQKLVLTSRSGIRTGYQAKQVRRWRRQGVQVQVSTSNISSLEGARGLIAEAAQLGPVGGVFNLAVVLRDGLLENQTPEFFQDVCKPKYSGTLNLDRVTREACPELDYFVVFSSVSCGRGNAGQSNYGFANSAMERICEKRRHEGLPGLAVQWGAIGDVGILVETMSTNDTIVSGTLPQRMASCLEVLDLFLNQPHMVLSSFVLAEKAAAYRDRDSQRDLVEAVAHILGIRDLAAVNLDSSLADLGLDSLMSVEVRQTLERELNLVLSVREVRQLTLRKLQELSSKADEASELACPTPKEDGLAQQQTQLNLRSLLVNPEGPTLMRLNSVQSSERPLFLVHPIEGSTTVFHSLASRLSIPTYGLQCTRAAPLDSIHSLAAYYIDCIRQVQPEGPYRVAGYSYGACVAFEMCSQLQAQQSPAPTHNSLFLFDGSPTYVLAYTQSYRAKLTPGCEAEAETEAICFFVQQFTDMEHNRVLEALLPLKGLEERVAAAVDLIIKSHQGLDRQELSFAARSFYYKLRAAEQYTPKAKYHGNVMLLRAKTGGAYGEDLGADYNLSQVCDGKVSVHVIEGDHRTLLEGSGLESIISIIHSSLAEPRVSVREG

[9] = target: Melanin-concentrating hormone receptor 1 (Homo sapiens, UniProt Q99705); experiment: Fluorescence-based counterscreen for antagonists of the G-protein coupled receptor 7 (GPR7): cell-based high throughput dose response assay to identify antagonists of the melanin-concentrating hormone receptor 1 (MCHR1).; type: functional
Melanin-concentrating hormone receptor 1, sequence (Q99705 whole entry): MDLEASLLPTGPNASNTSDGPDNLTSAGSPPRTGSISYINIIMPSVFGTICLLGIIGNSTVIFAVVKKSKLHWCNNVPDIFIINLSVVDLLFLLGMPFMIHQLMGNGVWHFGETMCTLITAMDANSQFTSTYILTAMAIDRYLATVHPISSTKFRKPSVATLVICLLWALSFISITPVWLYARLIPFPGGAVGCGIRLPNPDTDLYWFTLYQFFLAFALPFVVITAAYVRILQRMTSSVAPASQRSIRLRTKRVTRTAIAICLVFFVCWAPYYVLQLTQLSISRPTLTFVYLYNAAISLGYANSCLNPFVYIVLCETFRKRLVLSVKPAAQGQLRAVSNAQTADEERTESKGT

Fatty acid synthase [10] = target: T5, Fatty acid synthase; experiment: inhibition of human FAS-TE enzyme activity – biochemical, endpoint fluorescence intensity, uHTS hits, dose response (AID 624327); type: functional;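 note: fluorescence from hydrolysis of an O-methyl fluorescein acyl ester substrate by the enzyme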
[11] = target: T6, Neuropeptides B/W receptor type 1 (Homo sapiens, UniProt P48145); experiment: Fluorescence-based dose response cell-based high throughput screening assay to identify antagonists of the G-protein coupled receptor 7 (GPR7). [Related pubchem assays: 1952 (Screening assay (GPR7 antagonists).), 1880 (Summary AID.)]; type: functional
T6 sequence (P48145 whole entry): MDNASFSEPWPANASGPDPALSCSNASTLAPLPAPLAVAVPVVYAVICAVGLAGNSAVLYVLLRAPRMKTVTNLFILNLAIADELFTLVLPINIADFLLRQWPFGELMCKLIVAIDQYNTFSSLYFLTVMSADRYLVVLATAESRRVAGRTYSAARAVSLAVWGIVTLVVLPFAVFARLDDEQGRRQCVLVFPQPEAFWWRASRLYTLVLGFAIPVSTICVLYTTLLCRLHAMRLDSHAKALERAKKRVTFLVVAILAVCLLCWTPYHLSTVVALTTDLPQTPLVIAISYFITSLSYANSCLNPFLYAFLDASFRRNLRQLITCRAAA

[12] = target: Acyl-homoserine lactone acylase PvdQ (Pseudomonas aeruginosa (strain LESB58), UniProt Q9I194); experiment: PvdQ acylase enzyme activity blockers – biochemical, fluorescence, plate reader and imaging, cherry-picks, dose response (AID 493231)
Acyl-homoserine lactone acylase PvdQ, sequence (Q9I194 24-193 limits assumed): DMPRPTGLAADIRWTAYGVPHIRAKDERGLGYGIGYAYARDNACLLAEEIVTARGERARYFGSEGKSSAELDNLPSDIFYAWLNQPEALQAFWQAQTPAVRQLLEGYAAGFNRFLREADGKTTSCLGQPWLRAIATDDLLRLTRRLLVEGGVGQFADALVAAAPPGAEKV
Acyl-homoserine lactone acylase PvdQ, sequence (Q9I194 217-762 limits assumed): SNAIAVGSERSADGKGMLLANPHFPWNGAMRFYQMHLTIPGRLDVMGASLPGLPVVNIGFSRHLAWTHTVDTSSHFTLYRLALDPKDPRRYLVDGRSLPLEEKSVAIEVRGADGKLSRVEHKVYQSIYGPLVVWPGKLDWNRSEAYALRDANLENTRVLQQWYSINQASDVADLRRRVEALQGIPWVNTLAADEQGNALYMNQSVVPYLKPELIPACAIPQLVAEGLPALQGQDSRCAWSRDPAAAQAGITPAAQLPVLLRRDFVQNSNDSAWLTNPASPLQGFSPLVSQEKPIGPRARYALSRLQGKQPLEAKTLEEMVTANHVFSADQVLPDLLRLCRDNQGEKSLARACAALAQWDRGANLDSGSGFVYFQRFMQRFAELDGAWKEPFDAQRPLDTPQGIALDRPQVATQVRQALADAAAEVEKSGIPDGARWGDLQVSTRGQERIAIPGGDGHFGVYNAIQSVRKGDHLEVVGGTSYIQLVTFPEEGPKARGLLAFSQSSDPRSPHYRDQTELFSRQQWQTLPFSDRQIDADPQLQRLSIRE

[13] = target: T7, Heat shock factor protein 1 (Mus musculus, UniProt P38532); experiment: enhancement of HSF1-driven luciferase signal – cell-based, NIH3T3, luminescence, dose retest, confirmation (AID 435004); type: functional;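 note: stress induced by proteasome inhibitor MG132 added 30 min after compound; luciferase reporter driven by HSF1 response element in NIH3T3 cells; actives raise luminescence as potentiators of the MG132 stress response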
T7 sequence (P38532 whole entry): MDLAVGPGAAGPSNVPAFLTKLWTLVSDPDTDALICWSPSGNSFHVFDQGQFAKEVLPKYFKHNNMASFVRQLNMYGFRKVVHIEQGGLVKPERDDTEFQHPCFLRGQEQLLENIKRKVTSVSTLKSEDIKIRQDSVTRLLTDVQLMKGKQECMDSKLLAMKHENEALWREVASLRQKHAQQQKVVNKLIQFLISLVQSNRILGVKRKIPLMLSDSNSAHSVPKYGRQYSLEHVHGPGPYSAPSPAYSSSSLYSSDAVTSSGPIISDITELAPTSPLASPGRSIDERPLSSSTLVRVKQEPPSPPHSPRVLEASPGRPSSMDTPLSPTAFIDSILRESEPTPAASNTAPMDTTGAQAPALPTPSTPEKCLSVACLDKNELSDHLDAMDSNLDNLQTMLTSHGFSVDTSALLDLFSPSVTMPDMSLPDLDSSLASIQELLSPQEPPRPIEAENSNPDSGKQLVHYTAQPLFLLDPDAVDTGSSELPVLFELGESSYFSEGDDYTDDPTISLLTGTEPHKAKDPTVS

Vero = experiment: host cell viability loss, Vero E6 – synthesized analogs, cytotoxicity control for West Nile virus antiviral project, SAR follow-up (AID 2244); type: functional; conditions: Chlorocebus sabaeus
Ion channel NompC = Ion channel NompC (Danio rerio, UniProt Q7T1G6); experiment: Fluorescence counterscreen assay for TRPML3 agonists: dose response cell-based high-throughput screening assay to identify agonists of the transient receptor potential channel N1 (TRPN1). [Related pubchem assays: 1526, 1424, 1448 ]; type: functional
Mucolipin-3 = target: T8, Mucolipin-3 (Homo sapiens, UniProt Q8TDD5); experiment: Dose response cell-based high-throughput screening assay for agonists of the transient receptor potential channel ML3 (TRPML3). [Related pubchem assays: 1526, 1424, 1448 ]; type: functional
T8 sequence (Q8TDD5 whole entry): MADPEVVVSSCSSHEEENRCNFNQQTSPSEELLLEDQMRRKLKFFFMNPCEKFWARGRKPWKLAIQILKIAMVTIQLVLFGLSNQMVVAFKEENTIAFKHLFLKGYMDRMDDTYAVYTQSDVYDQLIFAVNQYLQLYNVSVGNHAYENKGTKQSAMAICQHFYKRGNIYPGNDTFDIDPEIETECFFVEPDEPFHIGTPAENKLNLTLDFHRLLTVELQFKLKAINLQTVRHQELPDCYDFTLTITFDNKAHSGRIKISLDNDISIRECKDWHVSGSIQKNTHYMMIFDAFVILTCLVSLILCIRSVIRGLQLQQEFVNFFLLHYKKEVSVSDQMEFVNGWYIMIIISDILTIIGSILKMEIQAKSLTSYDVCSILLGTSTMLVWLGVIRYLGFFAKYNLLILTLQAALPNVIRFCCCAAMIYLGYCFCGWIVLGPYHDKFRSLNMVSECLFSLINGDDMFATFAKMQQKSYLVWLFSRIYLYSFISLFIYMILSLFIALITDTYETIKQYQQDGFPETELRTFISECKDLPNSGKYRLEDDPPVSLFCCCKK

Structure (SMILES): O=C(CNC1CCN(Cc2ccccc2)CC1)Nc1ccc(S(=O)(=O)N2CCCCC2)cc1
- EC50 [1]: > 30 µM (not active)
- EC50 (cells): 0.019 µM (active)
- EC50 [2]: < 0.1 µM (active)

Structure (SMILES): Oc1c2c(nc3ccccc13)C(=C1CCCC1)CC2
- IC50 (Estrogen receptor beta [3]): > 109 µM (not active)
- IC50 (Estrogen receptor beta [4]): 1.69 µM (active)

Structure (SMILES): Nc1cc2nsnc2cc1Br
- IC50 [5]: 3.21 µM (active)
- IC50 (Genome polyprotein): 48.7 µM (active)
- IC50 (Bcl-2-like protein 10): 13.3 µM (active)
- IC50 [6]: > 67 µM (not active)
- IC50 [7]: > 2.48 µM (active)

Structure (SMILES): CC(C)C(=O)N1CCC(CNC=C2C(=O)N(C3CCCCC3)C(=O)N(C3CCCCC3)C2=O)CC1
- Absolute IC50 (XBP1) (X-box-binding protein 1): 10 µM

Structure (SMILES): O=C(COc1ccc([N+](=O)[O-])cc1)NCCC1=CCCCC1
- IC50 (Fatty acid synthase [8]): 10.1 µM (active)
- IC50 [9]: 22.2 µM (not active)
- IC50 (Fatty acid synthase [10]): 8.16 µM (active)
- IC50 [11]: > 14.6 µM (not active)

Structure (SMILES): CCOC(=O)c1cnn(-c2nc(SC)nc3sc4c(c23)CCC4)c1N
- IC50 (Estrogen receptor beta [3]): 0.069 µM (not active)
- IC50 (Estrogen receptor beta [4]): > 50 µM (not active)

Structure (SMILES): Cc1ccc(SCCOCCN2CCc3ccccc3C2)cc1
- EC50 [1]: > 60 µM (not active)
- EC50 (cells): 0.037 µM (active)
- EC50 [2]: < 0.1 µM (active)

Structure (SMILES): COC(=O)c1noc(-c2ccc(OC)cc2)n1
- AC50 [12]: > 100 µM (inactive)

Structure (SMILES): O=C(NC1CCCCCCC1)c1cc([N+](=O)[O-])ccc1Cl
- IC50 (Fatty acid synthase [8]): 7.35 µM (active)
- IC50 (Fatty acid synthase [10]): 9.4 µM (active)
- AC50 [12]: 40.8 µM (active)

Structure (SMILES): Clc1ccc(-n2c(SC/C=C/c3ccccc3)nnc2-c2cccnc2)cc1
- EC50 [13]: 46.1 µM (active)
- IC50 [9]: 8.43 µM (active)
- IC50 [11]: 16.9 µM (not active)

Structure (SMILES): COc1ccc(-c2csc(N(CCCN(C)C)C(=O)c3ccccc3F)n2)cc1
- CC50 (Vero): > 80 µM (active)

Structure (SMILES): Cc1ccc(OCC(=O)N/N=C/c2c[nH]nc2-c2ccc(Cl)c(Cl)c2)cc1
- Absolute IC50 (XBP1) (X-box-binding protein 1): 10 µM

Structure (SMILES): O=C1CCCN1CC#CCN1CCCC1 [OXOTREMORINE]
- EC50 (Ion channel NompC): > 29.9 µM (not active)
- EC50 (Mucolipin-3): > 29.9 µM (not active)
